PMC5452050 (ACS Omega, 2017)
Changes are numbered by the printed parent chain. pIC50, pKd: −log10 of the molar value.

Columns and labels:
MOLM13^FLT3-ITD cells = experiment: MOLM13 cell viability; format: cell-based; conditions: Homo sapiens, MOLM-13, 72 h, read-out: MOLM13^FLT3-ITD IC50
[1] = test system: MOLM13^FLT3-ITD/D835Y cells; experiment: MOLM13 cell viability; format: cell-based; conditions: Homo sapiens, MOLM-13, 72 h, read-out: MOLM13^FLT3-ITD/D835Y IC50
FLT3 = target: T1, FLT3 (Homo sapiens, UniProt P36888); experiment: Kd determination; format: binding
T1 sequence (P36888 27-993): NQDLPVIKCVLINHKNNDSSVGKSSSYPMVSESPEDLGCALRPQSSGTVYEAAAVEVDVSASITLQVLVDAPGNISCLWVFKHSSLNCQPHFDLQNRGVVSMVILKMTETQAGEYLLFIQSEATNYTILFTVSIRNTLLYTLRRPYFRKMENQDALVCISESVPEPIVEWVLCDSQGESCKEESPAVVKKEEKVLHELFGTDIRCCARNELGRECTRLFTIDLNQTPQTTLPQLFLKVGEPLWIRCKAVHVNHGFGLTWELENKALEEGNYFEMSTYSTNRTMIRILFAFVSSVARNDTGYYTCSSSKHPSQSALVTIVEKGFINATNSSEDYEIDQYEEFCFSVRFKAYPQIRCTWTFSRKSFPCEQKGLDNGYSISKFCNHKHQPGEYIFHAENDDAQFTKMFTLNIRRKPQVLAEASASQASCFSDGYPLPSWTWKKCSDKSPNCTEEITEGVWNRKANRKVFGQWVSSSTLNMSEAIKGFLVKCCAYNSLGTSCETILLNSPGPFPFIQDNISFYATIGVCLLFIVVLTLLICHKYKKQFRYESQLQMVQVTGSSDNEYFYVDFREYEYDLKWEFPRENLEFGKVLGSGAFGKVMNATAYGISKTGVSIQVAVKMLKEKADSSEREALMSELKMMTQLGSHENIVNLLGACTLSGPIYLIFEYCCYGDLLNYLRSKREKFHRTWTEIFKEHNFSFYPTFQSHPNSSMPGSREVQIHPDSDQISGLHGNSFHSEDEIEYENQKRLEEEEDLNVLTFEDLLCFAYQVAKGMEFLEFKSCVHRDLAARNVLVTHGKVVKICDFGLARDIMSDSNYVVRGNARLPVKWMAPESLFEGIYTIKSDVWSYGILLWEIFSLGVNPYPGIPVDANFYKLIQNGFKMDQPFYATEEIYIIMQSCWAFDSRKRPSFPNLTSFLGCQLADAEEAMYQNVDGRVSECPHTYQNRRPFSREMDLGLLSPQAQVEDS

FLT3 (D835V) = target: T2, FLT3 (D835V) (Homo sapiens, UniProt P36888, D835V); experiment: Kd determination; format: binding
T2 sequence (P36888 27-993 D835V): T1 sequence (P36888 27-993) with D809V

FLT3 (K663Q) = target: T3, FLT3 (K663Q) (Homo sapiens, UniProt P36888, K663Q); experiment: Kd determination; format: binding
T3 sequence (P36888 27-993 K663Q): T1 sequence (P36888 27-993) with K637Q

pIC50 (MOLM13^FLT3-ITD cells)	pIC50 [1]	pKd (FLT3)	pKd (FLT3 (D835V))	pKd (FLT3 (K663Q))	fold more potent against FLT3 than PDGFRB and JAK1 JH2 domain (Kd) (FLT3)	Compound
< 5.00	5.37	< 5.00	< 5.00	< 5.00	–	CC(C)Nc1ccnc(Nc2ccccc2-c2ccccc2)n1 [Compound 6a, N^2-([1,1′-Biphenyl]-2-yl)-N^4-isopropylpyrimidine-2,4-diamine]
6.87	7.09	8.44	9.10	7.89	approximately 8 fold	CC(C)Nc1ccnc(Nc2cccc(-c3cccnc3)c2)n1 [Compound 5e, N^4-Isopropyl-N^2-(3-(pyridin-3-yl)phenyl)pyrimidine-2,4-diamine]
6.21	5.94	7.21	8.11	6.96	–	c1cncc(-c2cccc(Nc3nccc(NC4CCCCC4)n3)c2)c1 [Compound 1, N^4-Cyclohexyl-N^2-(3-(pyridin-3-yl)phenyl)pyrimidine-2,4-diamine]
